Measured values taken from ChEMBL document CHEMBL1201862, “PubChem BioAssay data set” (2004).
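Test compounds were applied to cells in 96-well plates for 48 hours at 5 doses. Abbreviation: GI50, concentration required for 50% inhibition of growth.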 Activity calls are given as the source filed them. Cut-off read from the data, not from the text of the source: active = GI50 up to about 1.1 µM and inactive = higher.

Experiments:
Test in all cases: inhibition of tumour cell growth, NCI panel, 48 h
UACC-62 = test system: UACC-62
SK-OV-3 = test system: SK-OV-3
RXF 393 = test system: RXF 393
NCI/ADR-RES = test system: NCI/ADR-RES
IGROV-1 = test system: IGROV-1
EKVX = test system: EKVX
SNB-75 = test system: SNB-75
U-251 = test system: U-251
Malme-3M = test system: Malme-3M
PC-3 = test system: PC-3
SR = test system: SR
SK-MEL-2 = test system: SK-MEL-2
MOLT-4 = test system: MOLT-4
HCT-116 = test system: HCT-116
OVCAR-3 = test system: OVCAR-3
UACC-257 = test system: UACC-257
786-0 = test system: 786-0
T47D = test system: T47D
A498 = test system: A498
HT-29 = test system: HT-29

| Compound | GI50 (UACC-62) | GI50 (SK-OV-3) | GI50 (RXF 393) | GI50 (NCI/ADR-RES) | GI50 (IGROV-1) | GI50 (EKVX) | GI50 (SNB-75) | GI50 (U-251) | GI50 (Malme-3M) | GI50 (PC-3) | GI50 (SR) | GI50 (SK-MEL-2) | GI50 (MOLT-4) | GI50 (HCT-116) | GI50 (OVCAR-3) | GI50 (UACC-257) | GI50 (786-0) | GI50 (T47D) | GI50 (A498) | GI50 (HT-29) |
| --- | --- | --- | --- | --- | --- | --- | --- | --- | --- | --- | --- | --- | --- | --- | --- | --- | --- | --- | --- | --- |
| CCOC(=O)CCC(C(=O)OCC)n1nc2ccc(Nc3c(C)[n+]([O-])c4cc(F)c(OCC)cc4[n+]3[O-])cc2n1 (stereo not given) | 36.3 µM (inactive) | 31.9 µM (inactive) | 11.6 µM (inactive) | 62.1 µM (inactive) | 78.5 µM (inactive) | 28.5 µM (inactive) | 15.8 µM (inactive) | 23.6 µM (inactive) | > 100 µM (inactive) | 37.2 µM (inactive) | > 100 µM (inactive) | 50.2 µM (inactive) | > 100 µM (inactive) | 50.8 µM (inactive) | > 100 µM (inactive) | > 100 µM (inactive) | 25.3 µM (inactive) | 66.1 µM (inactive) | 52.4 µM (inactive) | > 100 µM (inactive) |
| CCN(CC)CCn1ncc2ccc3c(c(=O)c4cccnc4n3CCN(CC)CC)c21 | 2.49 µM (inactive) | 1.16 µM (inactive) | 0.67 µM (active) | 1.45 µM (inactive) | 0.625 µM (active) | 1.29 µM (inactive) | 1.05 µM (active) | 0.597 µM (active) | 1.75 µM (inactive) | 0.986 µM (active) | 0.284 µM (active) | 1.79 µM (inactive) | 0.344 µM (active) | 0.385 µM (active) | 1.13 µM (inactive) | 1.88 µM (inactive) | 0.438 µM (active) | 2.28 µM (inactive) | 0.598 µM (active) | 0.435 µM (active) |
| C/C(=N/NC(=S)Nc1ccccc1Cl)c1cccc(/C(C)=N\NC(=S)Nc2ccccc2Cl)n1 | > 100 µM (inactive) | > 100 µM (inactive) | > 100 µM (inactive) | > 100 µM (inactive) | 42.2 µM (inactive) | > 100 µM (inactive) | > 100 µM (inactive) | 26.7 µM (inactive) | 35.8 µM (inactive) | 36.1 µM (inactive) | 5.66 µM (inactive) | > 100 µM (inactive) | 23.6 µM (inactive) | 16.1 µM (inactive) | 16.3 µM (inactive) | 67 µM (inactive) | 7.33 µM (inactive) | > 100 µM (inactive) | > 100 µM (inactive) | > 100 µM (inactive) |
| O=C(Nc1ccccc1)N(CCCCN(Cc1ccccc1)C(=O)Nc1ccccc1)Cc1ccccc1 | > 100 µM (inactive) | > 100 µM (inactive) | 43.8 µM (inactive) | > 100 µM (inactive) | > 100 µM (inactive) | 72.3 µM (inactive) | 27.7 µM (inactive) | > 100 µM (inactive) | > 100 µM (inactive) | > 100 µM (inactive) | 44.3 µM (inactive) | > 100 µM (inactive) | 52.7 µM (inactive) | 30.1 µM (inactive) | > 100 µM (inactive) | > 100 µM (inactive) | 95.3 µM (inactive) | 25.9 µM (inactive) | > 100 µM (inactive) | 74.5 µM (inactive) |
| CNc1ncnc2c1ncn2C1C=CC(COS(N)(=O)=O)C1 (stereo not given) | > 100 µM (inactive) | > 100 µM (inactive) | > 100 µM (inactive) | > 100 µM (inactive) | > 100 µM (inactive) | > 100 µM (inactive) | > 100 µM (inactive) | > 100 µM (inactive) | > 100 µM (inactive) | > 100 µM (inactive) | > 100 µM (inactive) | > 100 µM (inactive) | > 100 µM (inactive) | > 100 µM (inactive) | > 100 µM (inactive) | > 100 µM (inactive) | > 100 µM (inactive) | > 100 µM (inactive) | > 100 µM (inactive) | > 100 µM (inactive) |
| O=[N+]([O-])c1ccc(-c2cc(O)c3nc4ccccc4n3c2)cc1 | > 31.6 µM (inactive) | 22.8 µM (inactive) | > 100 µM (inactive) | > 100 µM (inactive) | > 100 µM (inactive) | > 100 µM (inactive) | > 40.9 µM (inactive) | 28.1 µM (inactive) | > 100 µM (inactive) | > 100 µM (inactive) | > 100 µM (inactive) | > 100 µM (inactive) | > 100 µM (inactive) | > 100 µM (inactive) | > 100 µM (inactive) | > 100 µM (inactive) | > 90.6 µM (inactive) | 74 µM (inactive) | > 100 µM (inactive) | > 100 µM (inactive) |
| c1ccc2c(c1)CCc1[nH]c3c(c1-2)-c1ccccc1CC3 | > 100 µM (inactive) | > 100 µM (inactive) | 45.3 µM (inactive) | 98.6 µM (inactive) | > 100 µM (inactive) | > 100 µM (inactive) | 80.5 µM (inactive) | > 100 µM (inactive) | > 100 µM (inactive) | 64.1 µM (inactive) | 38.7 µM (inactive) | > 100 µM (inactive) | 35.6 µM (inactive) | 96.8 µM (inactive) | 91.4 µM (inactive) | > 100 µM (inactive) | 83 µM (inactive) | 90.2 µM (inactive) | > 100 µM (inactive) | 32.3 µM (inactive) |
| CC(=O)c1ccc(Br)cc1NC1=CC(=O)c2ncccc2C1=O | 2.58 µM (inactive) | 15.7 µM (inactive) | 5.13 µM (inactive) | 3.9 µM (inactive) | 2.69 µM (inactive) | 6.4 µM (inactive) | 0.242 µM (active) | 6.22 µM (inactive) | 1.64 µM (inactive) | 3.95 µM (inactive) | 2.22 µM (inactive) | 4.09 µM (inactive) | 2.29 µM (inactive) | 1.9 µM (inactive) | 1.61 µM (inactive) | 1.48 µM (inactive) | 3.71 µM (inactive) | 3.85 µM (inactive) | 1.57 µM (inactive) | 3.24 µM (inactive) |
| O=C(Nc1ccn(C2CC(I)C(COC(c3ccccc3)(c3ccccc3)c3ccccc3)O2)c(=O)n1)c1ccccc1 (stereo not given) | 11.2 µM (inactive) | 15.5 µM (inactive) | 8.59 µM (inactive) | 9.75 µM (inactive) | 13.3 µM (inactive) | 13.2 µM (inactive) | 2.43 µM (inactive) | 10.1 µM (inactive) | 7.78 µM (inactive) | 2.36 µM (inactive) | 0.6 µM (active) | > 10 µM (inactive) | 4.13 µM (inactive) | 6.35 µM (inactive) | 4.25 µM (inactive) | 10.8 µM (inactive) | 8.34 µM (inactive) | 6.87 µM (inactive) | 7.03 µM (inactive) | 6.5 µM (inactive) |
| CN(C)CC1CN/C(=N\C(=O)Nc2ccccc2)O1 (stereo not given) | > 100 µM (inactive) | > 100 µM (inactive) | > 100 µM (inactive) | > 100 µM (inactive) | > 100 µM (inactive) | > 100 µM (inactive) | > 100 µM (inactive) | > 100 µM (inactive) | > 100 µM (inactive) | > 100 µM (inactive) | > 100 µM (inactive) | > 100 µM (inactive) | > 100 µM (inactive) | > 100 µM (inactive) | > 10 µM (inactive) | > 100 µM (inactive) | > 100 µM (inactive) | > 100 µM (inactive) | 42.3 µM (inactive) | > 100 µM (inactive) |
| Cc1c(Cc2ccccc2)c(Cc2ccccc2)c(C)[s+]1[O-] | 14.5 µM (inactive) | 40.3 µM (inactive) | 20.6 µM (inactive) | 19.7 µM (inactive) | 36.8 µM (inactive) | 18.4 µM (inactive) | 20 µM (inactive) | 25.6 µM (inactive) | 33.2 µM (inactive) | 18.8 µM (inactive) | 19.8 µM (inactive) | 16.9 µM (inactive) | 14.7 µM (inactive) | 24.1 µM (inactive) | 30.8 µM (inactive) | 19.7 µM (inactive) | 22.9 µM (inactive) | 12.9 µM (inactive) | 24.5 µM (inactive) | 16.7 µM (inactive) |
| Cc1cn(C2CC(N=[N+]=[N-])C(CO[Si](C)(C)C(C)(C)C)O2)c(=O)[nH]c1=O (stereo not given) | 14.6 µM (inactive) | 18.4 µM (inactive) | 15.5 µM (inactive) | 16.6 µM (inactive) | 18.7 µM (inactive) | 23.5 µM (inactive) | 19.3 µM (inactive) | 18.1 µM (inactive) | 14.3 µM (inactive) | 15.7 µM (inactive) | 23.3 µM (inactive) | 15.2 µM (inactive) | 26.7 µM (inactive) | 16.1 µM (inactive) | 16.9 µM (inactive) | 21.6 µM (inactive) | 15.6 µM (inactive) | 29.4 µM (inactive) | 16.1 µM (inactive) | 16.8 µM (inactive) |
| Cc1cc2ccccc2c[n+]1CC(=O)CC([O-])(C(F)(F)F)C(F)(F)F | > 100 µM (inactive) | > 100 µM (inactive) | 37.3 µM (inactive) | > 100 µM (inactive) | 41.3 µM (inactive) | > 100 µM (inactive) | > 100 µM (inactive) | > 100 µM (inactive) | > 100 µM (inactive) | > 100 µM (inactive) | > 100 µM (inactive) | > 100 µM (inactive) | 79.8 µM (inactive) | > 100 µM (inactive) | 53.2 µM (inactive) | > 100 µM (inactive) | > 100 µM (inactive) | > 100 µM (inactive) | 36.1 µM (inactive) | 56.6 µM (inactive) |
| CCOC(=O)Oc1cc2c(c(OC)c1OC)-c1ccc(OC)c(=O)cc1C(NC(C)=O)CC2 (stereo not given) | 0.0156 µM (active) | 0.114 µM (active) | < 0.0137 µM (active) | 9.33 µM (inactive) | 0.0208 µM (active) | 19.1 µM (inactive) | 0.0119 µM (active) | 0.0212 µM (active) | < 0.015 µM (active) | 0.0278 µM (active) | < 0.01 µM (active) | 0.0123 µM (active) | 0.0179 µM (active) | 0.0149 µM (active) | 0.0166 µM (active) | 0.0146 µM (active) | 0.0345 µM (active) | > 100 µM (inactive) | 0.0541 µM (active) | 0.0187 µM (active) |
